{"source": "patent US11235001B2", "about": "“RUNX inhibitor” (KYOTO UNIVERSITY, priority 2016, dated 2022)", "key": {"CD62E (E-selectin)": {"system": "CD62E (E-selectin)", "test": "FACS of cell surface CD62E (E-selectin) in HUVEC", "type": "cell-based, human", "conditions": "1 μM, 24 hours", "protocol": "Using HUVEC, changes in expression levels of E-selectin by the RUNX inhibitor and RUNX knockdown were analyzed by FACS (fluorescence-activated cell sorter). To HUVEC, 1 μM of Chb-M′ was administered. After 24 hours, different antibodies were used for immunostaining and changes in the cell surface expression of CD62E (E-selectin) were measured. As a control, DMSO was administered. In addition, HUVEC in which RUNX1 gene expression was knockdown by sh_RUNX1 #2 were immunostained using different antibodies to measure changes in the cell surface expression of CD62E (E-selectin). As a control, the cells were knockdown by a siRNA targeting luciferase (sh_Luc.). As the antibodies, an anti-human CD62E (E-selectin) antibody (manufactured by eBioscience) and an isotype antibody (mouse IgG1) of anti-human CD62E (E-selectin) antibody (manufactured by eBioscience) were used."}, "GATA2, E2F5, and AR": {"system": "GATA2, E2F5, and AR", "test": "qRT-PCR of prostatic adenocarcinoma-related factors in PC-3", "type": "cell-based, human", "conditions": "PC-3, 5 μM, 6 hours", "protocol": "A total RNA was isolated with RNeasy mini kit (Qiagen) and reverse transcribed with Reverse script kit (TOYOBO) to generate cDNA. Real-time quantitative polymerase chain reaction (PCR) was carried out with 7500 Real-Time PCR System (Applied Biosystems) according to the manufacturer's instructions. Results were normalized to GAPDH levels. Relative expression levels were calculated using the 2-ΔΔCt method.\nTo prostatic adenocarcinoma cell line PC-3, 5 μM Chb-M′ was administered. After 6 hours, the mRNA levels of GATA2, E2F5, and AR (androgen receptors), which are important genes for proliferation of prostate cancer cells, were evaluated by qRT-PCR (see the above-described “Real-time quantitative PCR (qRT-PCR)”). As a control, DMSO was administered. In the figure, the mRNA expression levels of GATA2, E2F5, and AR are shown as values relative to those in the DMSO-treated group. As evident from FIG. 45, the expressions of GATA2, E2F5, and AR were suppressed by Chb-M′ at transcriptional levels."}, "BCR-ABL fusion protein": {"system": "BCR-ABL fusion protein", "test": "Western blotting of BCR-ABL fusion protein in CML and PhALL cells", "type": "cell-based, human", "conditions": "3 μM or 1 μM, 24 hours", "protocol": "(§1) Cells were washed twice with ice cold phosphate-buffered saline (PBS) and harvested in protein lysis buffer [50 mM Tris (pH 7.4), 100 mM NaCl, 0.1 mM EDTA, 1 mM phenylmethylsulfonyl fluoride, 1 mM β-glycerophosphate, 2.5 mM sodium pyrophosphate, 1 mM Na3VO4, lx protease inhibitor (Roche) and PhosSTOP (Roche)]. Whole cell extracts were separated by SDS-polyacrylamide gel electrophoresis (SDS-PAGE) and electrotransferred onto polyvinylidene difluoride membranes. Membranes were probed with the following antibodies: anti-Ctip1 antibody (Abcam, ab19487), anti-TRIM24 antibody (Bethyl Laboratories, Inc), anti-RUNX1 antibody (A-2), anti-GAPDH (FL-335), anti-p21 (C-19), anti-Bax (N-20) antibodies (Santa Cruz Biotechnology, Inc.), anti-RUNX2, anti-RUNX3, anti-p53 antibodies (Cell Signaling Technology), anti-CBFβ antibody (FL-182, Santa Cruz Biotechnology, Inc.), anti-cleaved caspase-3 antibody (5A1E, Cell Signaling Technology), anti-PARP antibody (46D11, Cell Signaling Technology). For secondary antibodies, anti-rabbit IgG, or anti-mosue IgG HRP-linked antibodies (Cell Signaling Technology) were used. Blots were detected using Chemi-Lumi One Super (nacalai tesque, Inc.) and ChemiDoc™ XRS+ Imager (Bio-Rad Laboratories, Inc.), as recommended by the manufacturers. Protein levels were quantified with Image Lab Software (Bio-Rad Laboratories, Inc.).\nTo BV173 cells, MYL cells, SU-Ph2 cells, and SU/SR cells, 3 μM or 1 μM of Chb-M′ were administered. After 24 hours, proteins were extracted, and then subjected to the Western blotting method (see the above-described “Immunoblotting”) using an ABL antibody to confirm expressions of BCR-ABL fusion protein at protein levels. As a control, DMSO was administered."}, "[1]": {"system": "c-kit, phospho-c-Kit, AKT, phosphorylated AKT, Mitf", "test": "Western blot of KIT signalling, LAD2 mast cells", "type": "cell-based, human", "conditions": "LAD2, 10 μM, 18 hours", "protocol": "as §1\nTo the LAD2 cell line and the HMC-1.2 cell line, 10 μM Chb-M′ was administered. After culturing the cells for 18 hours, extracts were obtained from the cells, and the protein expression levels of c-kit, phospho-c-Kit, AKT, phosphorylated AKT, Mitf, and GAPDH were analyzed by the Western blot analysis (see the above-described “Immunoblotting”) using different antibodies. AKT is an important signaling protein downstream of c-kit. Mitf is a representative transcriptional driver for c-kit. As a control, DMSO was administered. In the figure, “KIT” indicates c-kit, “pKIT” indicates phosphorylated c-kit, and “pAKT” indicates phosphorylated AKT. As primary antibodies, an anti-c-Kit antibody (Ab81, manufactured by Cell Signaling Technology), an anti-phospho-c-Kit (Tyr719) antibody (manufactured by Cell Signaling Technology), an anti-Akt antibody (manufactured by Cell Signaling Technology), an anti-phospho-Akt antibody (Ser473) (manufactured by Cell Signaling Technology), an anti-Mitf antibody (manufactured by Cosmo Bio), and an anti-GAPDH antibody (0411, manufactured by Santa Cruz Biotechnology, Inc.) were used. As secondary antibodies, an ECL™ anti-mouse IgG horseradish peroxidase-linked whole antibody (manufactured by GE Healthcare) and an ECL™ anti-rabbit IgG linked whole antibody (manufactured by GE Healthcare) were used."}, "A549": {"system": "A549", "test": "Cell viability, lung adenocarcinoma A549", "type": "cell-based, human", "conditions": "A549 (EGFR wild-type p53 wild-type), 48 hours"}, "MLL-ENL leukemia cells": {"system": "MLL-ENL leukemia cells", "test": "Homing assay of MLL-ENL leukemia cells", "type": "in vivo, mouse", "conditions": "B6 mice, 320 μg/kg, 6 times over 2 weeks; 24 hours after cell injection"}}, "data": [{"smiles": "CN(C)CCCNC(=O)c1cc(NC(=O)c2cc(NC(=O)c3cc(NC(=O)c4cc(NC(=O)CCCNC(=O)c5nc(NC(=O)c6nc(NC(=O)c7cc(NC(=O)c8nc(NC(=O)CCNC(=O)CCCc9ccc(N(CCCl)CCCl)cc9)cn8C)cn7C)cn6C)cn5C)cn4C)cn3C)cn2C)cn1C", "note": "[Chb-M′]", "values": [{"measurement": "Cell surface expression of E-selectin (FACS)", "setting": "CD62E (E-selectin)", "result": "decrease"}, {"measurement": "Expressions of GATA2, E2F5, and AR (mRNA)", "setting": "GATA2, E2F5, and AR", "result": "suppressed"}, {"measurement": "p210BCR-ABL fusion protein", "setting": "BCR-ABL fusion protein; BV173 cells", "result": "lost"}, {"measurement": "p210BCR-ABL fusion protein", "setting": "BCR-ABL fusion protein; MYL cells", "result": "lost"}, {"measurement": "p190BCR-ABL fusion protein", "setting": "BCR-ABL fusion protein; SU-Ph2 cells", "result": "lost"}, {"measurement": "p190BCR-ABL fusion protein", "setting": "BCR-ABL fusion protein; SU/SR cells", "result": "lost"}, {"measurement": "Expression of c-kit protein", "setting": "[1]", "result": "suppressed"}, {"measurement": "Level of phosphorylated AKT protein", "setting": "[1]", "result": "decreased"}, {"measurement": "Protein expression level of Mitf", "setting": "[1]", "result": "not affected"}, {"measurement": "Total amount of AKT", "setting": "[1]", "result": "not considerably changed"}, {"measurement": "phospho-c-Kit protein", "setting": "[1]", "result": "suppressed"}, {"measurement": "IC50 compared with the EGFR inhibitor (gefitinib)", "setting": "A549", "result": "lower IC50 values"}, {"measurement": "Number of MLL-ENL cells in bone marrow vs control group", "setting": "MLL-ENL leukemia cells", "result": "smaller"}, {"measurement": "Number of leukemia cells in spleen", "setting": "MLL-ENL leukemia cells", "result": "increased"}]}]}
